Measurements reported in patent publication US8975275B2, “Use of chemotherapeutic agents” (priority 1999, dated 2015).
Counter-ions that a name gives are not always drawn.

What was measured:
bacteraemia = details: systemic administration ten minutes prior to a dental extraction; cited from earlier work
[1] = system: pulpitis due to carious diseases; test: Topical treatment of pulpitis due to carious diseases (patient cases); type: in vivo, human
Text: This is of great importance because, for example in the case of caries profunda, it is always necessary to decide whether softened residual dentin can be left over the pulp. By virtue of complete elimination of the microbes present, there is now a novel method of treatment wherein a thin softened dentin covering can be left if the compounds of formula (I) or formula (II) are used. This method of treatment makes it possible to free infected dentin layers of microbes and to stop pulp infections. This means that pain reactions are eliminated and pulp infections are to a certain extent cured. The pulp remains vital. The topical application of the compounds of formula (I) or formula (II) followed the removal of the carious dentin. The compounds of formula (I) or formula (II) were applied for example in aqueous solution, in a form of gelatinous consistency or on an inert carrier, for example by means of a cotton wool plug. The overlying cavity was occluded with a cement to seal the margins. The cotton wool plug was left in the cavity for three to six days. The compounds of formula (I) or formula (II) can be used in concentrations of 0.005 mg/ml to 200 mg/ml, Preferred concentrations are those ranging from 0.5 mg/ml to 150 mg/ml and particularly preferred concentrations are those ranging from 10 to 100 mg/ml.

periodontal diseases = test: Topical treatment of periodontal diseases (patient cases); type: in vivo, human
Text: To do this, threads or so-called chips impregnated with solutions or gelatinous preparations of the compounds of formula (I) or formula (II) are inserted in the gingival pocket. A possible alternative is to use medicament carriers in the form of trays covering the teeth and gingiva. Before they are applied, the gelatinous applications of the compounds of formula (I) or formula (II) are instilled into the gingival pockets. In addition, the gel containing the compounds of formula (I) or formula (II) can also be placed in the medicament carrier. This use of medicament carriers is advantageous because the treatment time can be reduced by the rapid onset of action to about 15 to 30 minutes, so the treatment can be carried out directly in the surgery. The compounds of formula (I) or formula (II) can be used in concentrations of 0.005 mg/ml to 200 mg/ml. Preferred concentrations are those ranging from 0.5 mg/ml to 200 mg/ml and particularly preferred concentrations are those ranging from 10 to 150 mg/ml. Periodontal diseases can also be treated by administering the compounds of formula (I) or formula (II) by intraligamental injection, it being possible to use concentrations ranging from 0.005 mg/ml to 200 mg/ml, preferably from 0.5 mg/ml to 200 mg/ml. For the antibiotics commonly used nowadays, such as tetracyclines, an intraligamental injection is not reasonable since these compounds with a predominantly bacteriostatic action are quickly washed out due to the rapid fluid exchange in the periodontal interstice, and cannot develop their action. Tetra-cyclines can therefore only develop their effects via depot formulations. By contrast, the compounds of formula (I) or formula (II) have a very rapid and also bactericidal action, so their residence time in the periodontal interstice is sufficient to destroy the microbes.

[2] = system: infected root canal and periapical region; test: Topical treatment of the infected root canal and the periapical region (patient cases); type: in vivo, human
Procedure: In the clinical use of the compounds of formula (I) or formula (II), the pulp residues are removed first. The preparation of the canals is carried out with minimum discomfort for the patient. The canals are then flushed with hydrogen peroxide, Other methods of disinfection can be omitted. The compounds of formula (I) or formula (II), in a liquid form of administration, are then introduced into the toot canal under pressure using a cannula. The compounds of formula (I) or (II) are then injected in dissolved form or in a gelatinous form of administration. The root canal is subsequently occluded in the crown region, first with a cotton wool plug and then with zinc phosphate cement to seal the margins. If the canals are not gangrenous, the antibiotics remain in the canals for 3 days. […] The compounds of formula (I) or formula (II) can be used in concentrations of 0.005 mg/ml to 200 mg/ml.
In this application technique, which is known from intraligamental anaesthesia, the tooth is completely flooded with the antibacterial solution of the compounds of formula (I) or formula (II) in the entire root region.

Staphylococcus epidermis = details: microorganisms isolated from the root canals after topical antibiotic treatment; cited from earlier work
[3] = system: Staphylococcus aureus strains; details: microorganisms isolated from the root canals after topical antibiotic treatment; cited from earlier work
osseomucosal wounds = test: Topical treatment of osseomucosal wounds (patient cases); type: in vivo, human
Text: Application is effected by flushing and/or by means of strip inserts impregnated with compounds of formula (I) or formula (II). They are to be used for example for postoperative infections following dentosurgical interventions (extractions). For this purpose the gel containing the compound of formula (I) or formula (II) is syringed directly into the extraction wound or onto a collagen sponge which remains in the extraction wound. The wound is closed for about half an hour by biting on a tampon. Prophylactic applications have been particularly successful after the extraction of teeth with focal infections, Liquid forms of administration suitable for flushing fistulae are those containing the compounds of formula (I) or formula (II) in concentrations of 0.005 mg/ml to 250 mg/ml. Preferred concentrations are those ranging from 0.5 to 100 mg/ml, Forms suitable for coating strips are gels containing the compounds of formula (I) or formula (II), as well as aqueous solutions or suspensions. These applications can contain the compounds of formula (I) or formula (II) in concentrations of 0.005 mg/ml to 200 mg/ml. Preferred concentrations for solutions are those ranging from 0.1 to 50 mg/ml Gelatinous forms of administration in concentrations of 25-150 mg/ml are preferred in the case of strip inserts.

CO/N=C(\C(=O)N[C@@H]1C(=O)N2C(C(=O)O)=C(COC(N)=O)CS[C@H]12)c1ccco1 [cefuroxim]
frequency of bacteraemia versus the untreated group (bacteraemia): lower frequency

N[C@@H]1[C@H]2CN(c3nc4c(cc3F)c(=O)c(C(=O)O)cn4-c3ccc(F)cc3F)C[C@@H]12 [trovafloxacin mesylate, 7-(1α,5α,6α-6-amino-3-azabicyclo[3.1.0]hex-3-yl)-1-(2,4-difluorophenyl)-6-fluoro-1,4-dihydro-4-oxo-1,8-naphthyridine-3-carboxylic acid]
clinical finding at check-up ([1]; Patient A 1.15, tooth 44, night pain, pellet insert gel 50 mg/ml, check-up after 9 days): patient symptom-free, tooth vital
clinical finding at check-up (periodontal diseases; Patient B 8, marginal periodontitis entire upper and lower jaw, medicinal splint gel 0.25 mg/ml 10 minutes/day for 6 days, check-up after 6 days): patient symptom-free, inflammation phenomena no longer present
clinical finding at check-up ([2]; Patient A 3.18, tooth 34 apical periodontitis due to gangrene, gel 100 mg/ml + intraligamental injection 50 mg/ml, check-up after 12 days): patient symptom-free
clinical finding at check-up ([2]; Patient A 3.19, tooth 11 apical periodontitis due to gangrene simplex, root canal insert solution 50 mg/ml, check-up after 3 weeks): patient symptom-free, canal odour-free

COc1cccc(OC)c1C(=O)N[C@@H]1C(=O)N2[C@@H]1SC(C)(C)[C@@H]2C(=O)O [methicillin]
increase of resistance after the treatment (Staphylococcus epidermis): two-fold

penicillin
resistance of strains [3]: majority of Staphylococcus aureus strains were resistant

NC1CCN(c2nc3c(cc2F)c(=O)c(C(=O)O)cn3-c2ccc(F)cc2F)C1 (stereo not drawn) [tosufloxacin tosylate, 7-(3-amino-1-pyrrolidinyl)-1-(2,4-difluorophenyl)-6-fluoro-1,4-dihydro-4-oxo-1,8-naphthyridine-3-carboxylic acid]
clinical finding at check-up ([2]; Patient A 3.20, tooth 47 apical periodontitis, not gangrenous, root canal insert gel 100 mg/ml, check-up after 8 days): patient symptom-free
clinical finding at check-up ([2]; Patient A 3.22, tooth 35 apical periodontitis, not gangrenous, root canal insert gel 50 mg/ml, check-up after 10 days): patient symptom-free

C[C@@H]1CN(c2c(F)c(N)c3c(=O)c(C(=O)O)cn(C4CC4)c3c2F)C[C@H](C)N1 [sparfloxacin, 5-amino-1-cyclopropyl-7-[(3R,5S)-3,5-dimethyl-1-piperazinyl]-6,8-difluoro-1,4-dihydro-4-oxo-3-quinolinecarboxylic acid]
clinical finding at check-up ([1]; Patient A 1.16, gel 25 mg/ml, repetition of insert, check-up after 14 days): patient symptom-free, tooth vital
clinical finding at check-up ([1]; Patient A 1.16, tooth 46 reduced vitality, pellet insert gel 25 mg/ml, check-up after 4 days): still slight sensitivity to heat

CO/N=C1\CN(c2nc3c(cc2F)c(=O)c(C(=O)O)cn3C2CC2)CC1CN (stereo not drawn) [gemifloxacin mesylate, 7-[(4Z)-3-(aminomethyl)-4-(methoxyimino)-1-pyrrolidinyl]-1-cyclopropyl-6-fluoro-1,4-dihydro-4-oxo-1,8-naphtyridine-3-carboxylic acid]
clinical finding at check-up ([1]; Patient A 1.13, gel 25 mg/ml, repetition of insert, check-up after 4 days): tooth vital, patient symptom-free
clinical finding at check-up ([1]; Patient A 1.13, tooth 14, pellet insert gel 25 mg/ml, check-up after 3 weeks): still slight discomfort

CC[C@H]1OC(=O)[C@H](C)[C@@H](O[C@H]2C[C@@](C)(OC)[C@@H](O)[C@H](C)O2)[C@H](C)[C@@H](O[C@@H]2O[C@H](C)C[C@H](N(C)C)[C@H]2O)[C@](C)(O)C[C@@H](C)C(=O)[C@H](C)[C@@H](O)[C@]1(C)O [erythromycin]
resistance of strains [3]: majority of Staphylococcus aureus strains were resistant
increase of resistance after the treatment (Staphylococcus epidermis): three-fold

C[C@H]1COc2c(N3CCN(C)CC3)c(F)cc3c(=O)c(C(=O)O)cn1c23 [levofloxacin, (3S)-9-fluoro-2,3-dihydro-3-methyl-10-(4-methyl-1-piperazinyl)-7-oxo-7H-pyrido[1,2,3-de]-1,4-benzoxazine-6-carboxylic acid]
clinical finding at check-up ([1]; Patient A 1.14, tooth 13, night pain, pellet inserts gel 50 mg/ml, check-up after 14 days): patient symptom-free, tooth vital

O=C(N[C@H](CO)[C@H](O)c1ccc([N+](=O)[O-])cc1)C(Cl)Cl [chloramphenicol]
resistance of strains [3]: majority of Staphylococcus aureus strains were resistant

Cc1c(F)c(N2CCNC(C)C2)cc2c1c(=O)c(C(=O)O)cn2C1CC1 (stereo not drawn) [grepafloxacin, 1-cyclopropyl-6-fluoro-1,4-dihydro-5-methyl-7-(3-methyl-1-piperazinyl)-4-oxo-3-quinolinecarboxylic acid]
clinical finding at check-up ([1]; Patient A 1.11, gel 25 mg/ml, after final filling, check-up after 4 weeks): tooth vital, patient symptom-free
clinical finding at check-up ([1]; Patient A 1.11, tooth 22, pellet insert gel 25 mg/ml, check-up after 5 days): patient was symptom-free
clinical finding at check-up ([1]; Patient A 1.12, gel 50 mg/ml, after final filling, check-up after 14 days): teeth vital, patient symptom-free
clinical finding at check-up ([1]; Patient A 1.12, teeth 22, 23, pellet inserts gel 50 mg/ml, check-up after 1 week): teeth symptom-free
clinical finding at check-up (osseomucosal wounds; Patient C 8, apical granulomas, extraction (osteotomy), gauze with gel 50 mg/ml, check-up after 3 days): patient is symptom-free
clinical finding at check-up (osseomucosal wounds; Patient C 9, same combined treatment, after root canal filling, check-up after 2 weeks): patient symptom-free
clinical finding at check-up (osseomucosal wounds; Patient C 9, tooth 14 pulpitis purulenta, fistulation, moxifloxacin hydrochloride solution 25 mg/ml flushing + grepafloxacin gel 25 mg/ml canal insert + moxifloxacin hydrochloride gel 25 mg/ml gauze insert, check-up after 6 days): patient symptom-free
clinical finding at check-up (periodontal diseases; Patient B 7, teeth 14-17 marginal periodontitis, thread insert gel 50 mg/ml + intraligamental injection 50 mg/ml, check-up after 9 days): patient symptom-free, gingival regions and pockets inflammation-free
clinical finding at check-up ([2]; Patient A 3.16, after root filling, check-up after 1 week): patient still symptom-free
clinical finding at check-up ([2]; Patient A 3.16, tooth 46 apical periodontitis, not gangrenous, root canal insert gel 50 mg/ml, check-up after 3 weeks): patient symptom-free
clinical finding at check-up ([2]; Patient A 3.17, after root filling, check-up after 4 days): patient symptom-free
clinical finding at check-up ([2]; Patient A 3.17, tooth 32 apical periodontitis due to gangrene, solution 20 mg/ml + gel 20 mg/ml + intraligamental injection 50 mg/ml, check-up after 6 days): no gangrenous odour, no bite discomfort
clinical finding at check-up ([2]; Patient A 3.23, tooth 34 fistulation, gangrenous, solution 50 mg/ml by paper point + intraligamental injection 50 mg/ml, check-up after 10 days): patient symptom-free
